The subject of experiment [1] is mice. The experiment in a line: Flexor reflex response (EMG of semitendinosus muscle) after femoral artery injection. Format: in vivo, mouse. The note with it: propofol 500 μM, capsaicin 50 μM. How it is done:
(§1) Behavioral Experiments and Neurogenic Inflammation. Animal experiments were performed according to National Institutes of Health and institutional guidelines. […] Nocifensive behavior (nose wiping in sawdust bedding) was recorded for 2 min with a video camera and the duration was subsequently measured by a blinded observer. […] Electromyographic (EMG) activity was recorded via platinum electrodes from the semitendinosus muscle in mice anesthetized with urethane (1.3 g/kg) as described in Ando and Watanabe, Br J. Anaesth. […] The EMG signal was recorded by using a low-pass cutoff frequency of 200 Hz and integrated offline by using a 100-ms time window. […] Ear thickness was recorded by using an engineer's micrometer (Mitutoyo Corp.) before mustard-oil application and thereafter every 15 min for 60 min of anesthesia and 60 min of recovery.

The test system of experiment [2] is DRG neurons from TRPA1-null mice. The experiment in a line: Ca2+ imaging in DRG neurons from TRPA1-null mice. Format: cell-based, mouse. The note with it: desflurane n=125, propofol n=120. How it is done: (§2) Ca^2+ Imaging. Neurons were loaded with 1 μM Fluo4-AM (Molecular Probes) for 20 min and washed for a further 10-20 min before recording. The dye was excited at 488±15 nm. Emitted fluorescence was filtered with a 535±25 nm bandpass filter, captured by a SPOT RT digital camera (Diagnostic Instruments) and read into a computer. Analysis was performed offline by using Simple PCI software (Compix Inc.).

In another experiment the target is T1, TRPM8 (Rattus norvegicus, UniProt Q8R455).
T1 construct: expressed in transfected cells; host or cells: HEK 293F
Description: Whole-cell patch-clamp of TRPM8-expressing HEK293 cells. Particulars: 100 μM. Format: cell-based. As to the method: (§3) Electrophysiology. […] Whole-cell and single-channel patch-clamp recordings were performed by using an EPC8 amplifier (HEKA Electronics). For whole-cell and excised patch recordings the bath solution contained 140 mMNaCl, 4 mMKCl, 1 mMMgCl2, 1.2 mMCaCl2, 10 mMHepes, 10 mM glucose, pH 7.3. For cell-attached experiments, NaCl was replaced with KCl in the bath solution. […] For neuronal recording NaCl was replaced with K-gluconate (plus 1 mMATP, 0.2 mM GTP). Solutions were applied via a gravity-fed system. […] Voltage-dependent properties were measured as described in Matt and Ahern, J. Physiol. […] The baseline currents under control conditions were subtracted. For cell-attached experiments, peak amplitudes were measured from all-points histograms, and open probability was measured as NPo>750 ms. Defolliculated Xenopus laevis oocytes were injected with ≈10 ng of hTRPA1 (gift of Ardem Patapoutian, The Scripps Research Institute, La Jolla, Calif.).

In experiment [3] the test system is mice. Description: Nocifensive behavior after topical application to the nasal epithelium. Type of experiment: in vivo, mouse. How it is done:
as §1

Another experiment concerns DRG neurons. The experiment in a line: Ca2+ imaging in DRG neurons from wild-type mice. The note with it: propofol 100 μM. Format: cell-based, mouse. How it is done:
as §2

The target in experiment [4] is T2, TRPA1 (Rattus norvegicus, UniProt Q6RI86).
T2 construct: expressed in transfected cells; host or cells: HEK 293F
The experiment in a line: Single-channel recordings of TRPA1 (outside-out / cell-attached patches). Type of experiment: cell-based. As to the method: (§4) Electrophysiology. HEK 293F cells were transfected with rat TRPV1, TRPA1, and TRPM8 (gift of David Julius, University of California, San Francisco). Dorsal root ganglia were cultured from adult mice (C57B16/J wild type and TRPV1-null, and mixed B6/129 background TRPA1-null) in Neurobasal +2% B-27 medium (Invitrogen), 0.1% L-glutamine and 1% penicillin/streptomycin. Whole-cell and single-channel patch-clamp recordings were performed by using an EPC8 amplifier (HEKA Electronics). For whole-cell and excised patch recordings the bath solution contained 140 mMNaCl, 4 mMKCl, 1 mMMgCl2, 1.2 mMCaCl2, 10 mMHepes, 10 mM glucose, pH 7.3. For cell-attached experiments, NaCl was replaced with KCl in the bath solution. The pipette solution contained 140 mM NaCl or KCl, 10 mM Hepes, 5 mM EGTA, pH 7.3. For neuronal recording NaCl was replaced with K-gluconate (plus 1 mMATP, 0.2 mM GTP). Solutions were applied via a gravity-fed system. Separate outlets were used to apply capsaicin and AITC solutions to avoid contamination. Voltage-dependent properties were measured as described in Matt and Ahern, J. Physiol. 585:469-482 (2007). Current-voltage measurements comprised a 200-ms ramp from −150 mV to +200 mV. The baseline currents under control conditions were subtracted. For cell-attached experiments, peak amplitudes were measured from all-points histograms, and open probability was measured as NPo>750 ms. Defolliculated Xenopus laevis oocytes were injected with ≈10 ng of hTRPA1 (gift of Ardem Patapoutian, The Scripps Research Institute, La Jolla, Calif.). Oocytes were placed in a Perspex chamber and continuously superfused (5 ml min^−1) with Ca^2+-free solution containing 100 mM NaCl, 2.5 mM KCl, 5 mM Hepes, 1 mM MgC12 and titrated to pH 7.3 with ˜5 mM NaOH.

A further experiment addresses TRPV1 (Rattus norvegicus, UniProt O35433). The experiment in a line: Whole-cell patch-clamp of TRPV1-expressing HEK293 cells. Type of experiment: cell-based. Also on record: expressed in transfected cells; host or cells: HEK 293F (Invitrogen), co-transfected with GFP cDNA. The note with it: 100 μM. As to the method: as §3
HEK cell and sensory neuron electrophysiology. […] Cell cultures were maintained at 37° C. with 5% CO2. Cells were transfected with rat TRPV 1 (gift of David Julius), and GFP cDNA using Lipofectamine™ Transfection Reagent (Invitrogen) and used 24-48 h after transfection. Nodose ganglia were obtained from adult mice (C57B16/J and TRPV1-null), cut, digested with collagenase, and cultured in Neurobasal +2% B-27 medium (Invitrogen), 0.1% L-glutamine and 1% penicillin/streptomycin on poly-D lysine-coated glass coverslips at 37° C. in 5% CO2. Neurons were used within 24-36 hr of culture. Whole-cell and single-channel patch clamp recordings were performed using an EPC8 amplifier (HEKA). The current signal was low-pass filtered at 1-3 kHz and sampled at 4 kHz. Currents were further filtered for display purposes. For whole-cell and excised patch recordings the bath solution contained (in mM): 140 NaCl, 4 KCl, 1 MgCl2, 1 EGTA, 10 HEPES, 10 glucose pH 7.3 (290 mOsm). The pipette solution contained (in mM): 140 CsC1, 10 NaCl, 10 HEPES, 5 EGTA, 2 Mg ATP and 0.03 GTP, pH 7.3. The peak amplitudes measured either during the prepulse or the tail current (within 1 ms) were plotted as a function of the test potential and normalized to the maximal current obtained from the following Boltzmann function: […]
Background: The patch-clamp technique gives a direct electrical read-out from membranes.

The target in experiment [5] is T2, TRPA1. The experiment in a line: Whole-cell patch-clamp of TRPA1-expressing HEK293 cells. Type of experiment: cell-based. Particulars: for Response relative to the full agonist AITC: AITC 1 mM. How it is done:
as §3
Volatile General Anesthetics and Chemicals. Saturated stock solutions of volatile GAs were prepared in gas-tight bottles by dissolving excess anesthetic agents in bath solutions overnight. From these stock solutions fresh dilutions were made up every 40-60 min. Concentrations of GAs in the bath solutions were verified by using a modified head-space gas chromatography method. […] Alcohols with <6 carbons were dissolved directly into extracellular solution, and alcohols containing 6 carbons or more were dissolved in DMSO and then diluted into extracellular solutions that were sonicated for 20 min. All other drugs were prepared as stock solutions in DMSO or ethanol and diluted into physiological solution before experiments.

The test system of experiment [6] is AITC-sensitive DRG neurons. Description: Voltage- and current-clamp of DRG sensory neurons. Particulars: 100 μM. Type of experiment: cell-based, mouse. As to the method: as §4

Data on one compound can be found in patent US20110104301A1, “METHODS OF REDUCING PAIN AND INFLAMMATION” (Georgetown University, A Congressionally Chartered …, priority 2008, published 2011).

T2 sequence (Q6RI86 whole entry): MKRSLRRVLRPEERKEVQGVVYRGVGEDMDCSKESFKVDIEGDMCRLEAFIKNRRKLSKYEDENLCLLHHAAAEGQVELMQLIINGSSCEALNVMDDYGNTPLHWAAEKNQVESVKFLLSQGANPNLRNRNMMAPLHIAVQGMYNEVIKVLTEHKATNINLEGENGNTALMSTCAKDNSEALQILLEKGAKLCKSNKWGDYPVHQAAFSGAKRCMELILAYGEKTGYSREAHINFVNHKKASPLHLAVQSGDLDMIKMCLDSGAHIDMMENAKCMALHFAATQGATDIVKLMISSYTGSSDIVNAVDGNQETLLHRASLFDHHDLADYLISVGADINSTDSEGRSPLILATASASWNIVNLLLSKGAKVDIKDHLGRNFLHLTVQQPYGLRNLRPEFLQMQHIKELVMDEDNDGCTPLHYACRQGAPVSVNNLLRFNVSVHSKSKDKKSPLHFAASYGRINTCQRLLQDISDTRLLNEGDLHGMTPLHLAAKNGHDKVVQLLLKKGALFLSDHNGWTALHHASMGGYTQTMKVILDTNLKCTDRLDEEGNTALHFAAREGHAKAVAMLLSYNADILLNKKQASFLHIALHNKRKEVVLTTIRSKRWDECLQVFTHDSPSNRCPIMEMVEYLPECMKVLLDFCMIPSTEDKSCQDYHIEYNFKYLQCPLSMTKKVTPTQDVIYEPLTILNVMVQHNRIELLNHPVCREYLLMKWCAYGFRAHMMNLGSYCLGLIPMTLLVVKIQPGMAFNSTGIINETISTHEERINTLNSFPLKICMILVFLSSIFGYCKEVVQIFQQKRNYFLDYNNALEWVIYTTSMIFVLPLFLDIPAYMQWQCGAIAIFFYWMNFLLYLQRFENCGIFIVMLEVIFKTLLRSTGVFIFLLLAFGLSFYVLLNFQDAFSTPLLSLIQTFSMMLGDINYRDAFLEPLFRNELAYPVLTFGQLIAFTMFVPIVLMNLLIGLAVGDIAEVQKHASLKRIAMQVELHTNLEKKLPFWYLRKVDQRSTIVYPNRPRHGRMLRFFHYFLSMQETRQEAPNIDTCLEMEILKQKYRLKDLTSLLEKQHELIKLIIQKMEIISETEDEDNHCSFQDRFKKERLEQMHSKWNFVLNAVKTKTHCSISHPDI
Sequence of TRPV1 (O35433 whole entry): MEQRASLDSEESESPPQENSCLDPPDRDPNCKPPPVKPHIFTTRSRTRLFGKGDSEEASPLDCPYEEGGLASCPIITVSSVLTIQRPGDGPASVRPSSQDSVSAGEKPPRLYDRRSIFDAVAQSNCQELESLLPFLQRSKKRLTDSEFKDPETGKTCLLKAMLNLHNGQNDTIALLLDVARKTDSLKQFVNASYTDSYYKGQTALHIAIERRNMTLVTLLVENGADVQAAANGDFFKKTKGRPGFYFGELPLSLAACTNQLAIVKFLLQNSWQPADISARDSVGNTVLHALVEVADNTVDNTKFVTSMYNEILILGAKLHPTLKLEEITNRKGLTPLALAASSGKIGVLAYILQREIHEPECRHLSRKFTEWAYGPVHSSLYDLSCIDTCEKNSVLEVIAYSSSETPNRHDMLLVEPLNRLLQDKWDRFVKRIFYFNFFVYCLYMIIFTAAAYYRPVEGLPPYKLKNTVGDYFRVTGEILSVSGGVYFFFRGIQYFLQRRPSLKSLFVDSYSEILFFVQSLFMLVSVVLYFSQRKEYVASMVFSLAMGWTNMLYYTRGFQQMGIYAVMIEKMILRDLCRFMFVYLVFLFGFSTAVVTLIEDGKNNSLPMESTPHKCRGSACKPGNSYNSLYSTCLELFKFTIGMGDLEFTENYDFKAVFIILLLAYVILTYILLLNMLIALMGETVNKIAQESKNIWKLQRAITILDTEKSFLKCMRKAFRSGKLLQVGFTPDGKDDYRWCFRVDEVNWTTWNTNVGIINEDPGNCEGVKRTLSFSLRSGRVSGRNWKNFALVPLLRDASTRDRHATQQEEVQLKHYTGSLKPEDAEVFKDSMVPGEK
T1 sequence (Q8R455 whole entry): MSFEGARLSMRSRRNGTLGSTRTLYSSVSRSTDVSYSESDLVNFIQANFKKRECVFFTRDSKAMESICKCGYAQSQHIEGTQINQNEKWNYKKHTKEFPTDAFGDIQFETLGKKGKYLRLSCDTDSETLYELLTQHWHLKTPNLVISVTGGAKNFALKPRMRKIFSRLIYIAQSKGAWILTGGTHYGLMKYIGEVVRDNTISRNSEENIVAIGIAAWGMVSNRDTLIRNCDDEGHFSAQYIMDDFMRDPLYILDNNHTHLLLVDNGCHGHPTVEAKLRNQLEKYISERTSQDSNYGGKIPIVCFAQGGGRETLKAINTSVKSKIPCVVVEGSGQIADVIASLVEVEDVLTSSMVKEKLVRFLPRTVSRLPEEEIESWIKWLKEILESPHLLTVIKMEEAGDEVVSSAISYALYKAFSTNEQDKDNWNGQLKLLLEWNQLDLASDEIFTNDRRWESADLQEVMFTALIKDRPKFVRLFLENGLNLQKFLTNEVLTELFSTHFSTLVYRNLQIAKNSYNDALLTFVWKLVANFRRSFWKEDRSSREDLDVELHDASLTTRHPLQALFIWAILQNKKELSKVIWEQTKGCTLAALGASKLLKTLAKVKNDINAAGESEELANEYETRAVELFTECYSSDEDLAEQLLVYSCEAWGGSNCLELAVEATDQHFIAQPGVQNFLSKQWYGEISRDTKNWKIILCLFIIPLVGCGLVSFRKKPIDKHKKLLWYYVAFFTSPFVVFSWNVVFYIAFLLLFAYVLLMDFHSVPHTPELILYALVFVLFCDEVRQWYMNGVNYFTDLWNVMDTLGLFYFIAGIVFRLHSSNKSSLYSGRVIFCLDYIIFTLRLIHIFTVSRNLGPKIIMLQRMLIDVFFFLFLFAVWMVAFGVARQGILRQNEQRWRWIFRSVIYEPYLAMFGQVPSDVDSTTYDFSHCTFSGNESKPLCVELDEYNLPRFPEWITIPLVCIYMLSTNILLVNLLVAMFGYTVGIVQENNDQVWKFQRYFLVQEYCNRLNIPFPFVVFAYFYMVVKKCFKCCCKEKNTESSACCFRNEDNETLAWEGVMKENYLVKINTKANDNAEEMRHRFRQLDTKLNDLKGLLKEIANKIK

`CC(C)c1cccc(C(C)C)c1O` [propofol]: in the experiment with mice [1], the “Flexor reflex muscle activity in TRPA1+/− mice” value is given as “evoked reflex muscle activity” and the “Flexor reflex muscle activity in TRPA1-null mice” value is on record as “no responses”. Also, the “Ca2+ responses in neurons from TRPA1-null mice” value in [2] was “no responses”. Further, the “Change in V1/2 of TRPM8 (ΔV1/2, increase)” value on TRPM8 (n=5-6) amounted to 1.7 mV. On TRPM8 (−50 mV), the “Effect of i.v. GAs on TRPM8 channels” value was “without effect”. Moreover, the “Duration of nocifensive response” value in the experiment on mice [3] (TRPA1+/− littermates, propofol 50% topical) is on record as “≈ 35 s”. Further, in the experiment with mice [3] (propofol 50% topical), the “Nocifensive behavior in TRPA1-null mice” value is “completely absent”. The “Duration of pain-related (nocifensive) behavior” value in the experiment with mice [3] (wild-type mice, propofol 50% topical to nasal epithelium, 2-min period) is reported as “≈ 40 s”. In the experiment on DRG neurons, the “Cells with dual sensitivity to propofol and AITC” value is “≈ 30%”. In addition, the “TRPA1 unitary conductance in presence of propofol” value at TRPA1 [4] (100 μM, outside-out patch, Vm +40 mV, decrease from 108 pS) is listed as 94 pS. On TRPA1 [4] (cell-free patches), the “Single TRPA1 channel activity” value is “increased TRPA1 activity and reduced the unitary conductance”. Also, the “Reduction in half-maximal voltage (V1/2) for TRPV1 activation” value on TRPV1 (n=4-5) stood at 10.5 mV. For the same compound, the “Effect of i.v. GAs on TRPV1 channels” value on TRPV1 (−50 mV) is listed as “without effect”. Besides, the “Activation of TRPA1 by i.v. GAs” value at TRPA1 [5] (100 μM, membrane potential −50 mV) was “robust activation”. For the same compound, the “Concentration range of TRPA1 activation” value on TRPA1 [5] (FIG. 2D) is 1 to 100 µM. The “Response relative to the full agonist AITC” value on TRPA1 [5] (at +200 my) is given as around 38%. In addition, the “Response relative to the full agonist AITC” value at TRPA1 [5] (at −150 mV) is “≈ 8%”. For the same compound, the “Co-application with octanol at TRPA1” value at TRPA1 [5] (propofol 100 μM + octanol 1.8 mM) was “additive response”. The “Inward currents in AITC-sensitive DRG neurons” value in experiment [6] (n=6) is listed as “inward currents were also observed”. Moreover, the “Membrane potential under current clamp” value in experiment [6] (elicits action potentials) is listed as “depolarized”.
